These results are taken from PubChem BioAssay (NCI).

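Grown in 96-well plates, cells were treated for 48 hours with each compound at five concentrations. Insufficient inhibition: endpoint recorded as highest concentration tested. GI50 is the concentration that inhibits growth by half. Definition used: TGI = concentration required for complete inhibition of growth.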

Some test systems named below: UACC-62 melanoma; SNB-19 CNS; SNB-75 CNS; M14 melanoma; SW-620 colon; OVCAR-4 ovarian; EKVX NSCLC; K-562 leukemia; IGROV1 ovarian; COLO 205 colon.
Holding throughout (experiment): NCI tumour cell line growth inhibition, 48 h

In the case of `c1cc(-c2sc(-c3ccncc3)c(-c3ccncc3)c2-c2ccncc2)ccn1`, the TGI in the test with UACC-62 melanoma was 27.8 µM; in the test on SNB-19 CNS, 55.9 µM; in the test with SNB-75 CNS, 40.9 µM; with M14 melanoma, 31.2 µM; in the test with SW-620 colon it was 59.5 µM; with OVCAR-4 ovarian, greater than 100 µM. Further, the TGI is 43.9 µM in the test with EKVX NSCLC, greater than 100 µM in the test on K-562 leukemia, greater than 100 µM with IGROV1 ovarian and 27.4 µM in the test with COLO 205 colon.

With `NC(N)=NNC(=O)C(=O)O`, the TGI in the test on UACC-62 melanoma, in the test with SNB-19 CNS, in the test with SNB-75 CNS, with M14 melanoma, with SW-620 colon and in the test on OVCAR-4 ovarian was greater than 100 µM throughout. Also, the TGI with EKVX NSCLC, in the test with K-562 leukemia, in the test on IGROV1 ovarian and with COLO 205 colon was greater than 100 µM in each case.

As for `COc1ccc2c(C3(O)CCNCC3)c[nH]c2c1`, the TGI in the test on UACC-62 melanoma, in the test with SNB-19 CNS, in the test with SNB-75 CNS, with M14 melanoma, in the test on SW-620 colon and in the test with OVCAR-4 ovarian was greater than 100 µM throughout. Besides, the TGI in the test on EKVX NSCLC, with K-562 leukemia, in the test with IGROV1 ovarian and with COLO 205 colon was greater than 100 µM each time.

Take `Cn1c2ccccc2n2c3nc4ccccc4nc3c(C#N)c12`: the TGI with UACC-62 melanoma, with SNB-19 CNS, with SNB-75 CNS, with M14 melanoma, in the test with SW-620 colon and in the test on OVCAR-4 ovarian was greater than 100 µM each time. Moreover, the TGI in the test on EKVX NSCLC, in the test with K-562 leukemia, in the test with IGROV1 ovarian and in the test on COLO 205 colon was greater than 100 µM in each case.

Turning to `CCCc1ccc(N=Cc2cc(OC)c(OC)c(OC)c2)cc1`, the TGI with UACC-62 melanoma, in the test on SNB-19 CNS, in the test with SNB-75 CNS, in the test with M14 melanoma, with SW-620 colon and in the test on OVCAR-4 ovarian was greater than 100 µM throughout. Moreover, the TGI was greater than 100 µM in the test with EKVX NSCLC, greater than 72.6 µM with K-562 leukemia, greater than 100 µM in the test with IGROV1 ovarian and greater than 31.6 µM in the test with COLO 205 colon.

In the case of `O=[N+]([O-])/C=C\c1ccc2c(c1)OCO2`, the GI50 with UACC-62 melanoma was 15.3 µM; with SNB-19 CNS, 13.1 µM; with SNB-75 CNS it was 10.3 µM; in the test with M14 melanoma, 2.08 µM; in the test with SW-620 colon, 2.07 µM; in the test with OVCAR-4 ovarian it was 11.8 µM. Besides, the GI50 was 14.4 µM in the test on EKVX NSCLC, 3.16 µM in the test on K-562 leukemia, 1.98 µM in the test on IGROV1 ovarian and 3.71 µM with COLO 205 colon. Moreover, the TGI was determined as 31.8 µM in the test on UACC-62 melanoma; 30.8 µM in the test on SNB-19 CNS; 22.2 µM with SNB-75 CNS; 4.77 µM with M14 melanoma; 4.91 µM in the test on SW-620 colon; 24.2 µM with OVCAR-4 ovarian. The TGI with EKVX NSCLC is 34.9 µM; in the test with K-562 leukemia, greater than 100 µM; in the test on IGROV1 ovarian it was 4.67 µM; in the test with COLO 205 colon, 13.4 µM.

In the case of `O=S(=O)(O)c1ccc2cc(N=Nc3cc(S(=O)(=O)O)c4cccnc4c3O)ccc2c1`, the TGI in the test with UACC-62 melanoma, in the test on SNB-19 CNS, with SNB-75 CNS, with M14 melanoma, in the test on SW-620 colon and in the test on OVCAR-4 ovarian was greater than 100 µM throughout. For the same compound, the TGI in the test with EKVX NSCLC, with K-562 leukemia, with IGROV1 ovarian and in the test on COLO 205 colon was greater than 100 µM throughout.

For the compound `O=C(O)C(Cc1ccc(O)c([N+](=O)[O-])c1)N1C(=O)c2ccccc2C1=O` (centres undefined), the TGI with UACC-62 melanoma, with SNB-19 CNS, in the test on SNB-75 CNS, in the test with M14 melanoma, with SW-620 colon and in the test with OVCAR-4 ovarian was greater than 100 µM throughout. The TGI with EKVX NSCLC, in the test with K-562 leukemia, in the test on IGROV1 ovarian and in the test on COLO 205 colon was greater than 100 µM each time.

In the case of `O=C(N/N=C/c1ccc(F)cc1)c1[nH]c2ccc(I)cc2c1-c1ccccc1`, the GI50 was 0.324 µM with UACC-62 melanoma; 2.31 µM in the test with SNB-19 CNS; 0.327 µM in the test on SNB-75 CNS; 0.372 µM in the test on M14 melanoma; 0.4 µM in the test on SW-620 colon; 0.702 µM in the test with OVCAR-4 ovarian. The GI50 in the test with EKVX NSCLC was 0.47 µM; with K-562 leukemia it was 0.325 µM; in the test on IGROV1 ovarian, 0.45 µM; in the test with COLO 205 colon, 0.482 µM. Besides, the TGI in the test with UACC-62 melanoma was greater than 100 µM; in the test with SNB-19 CNS, greater than 82.1 µM; in the test on SNB-75 CNS, 39.3 µM; in the test with M14 melanoma, 7.85 µM; in the test with SW-620 colon, greater than 100 µM; with OVCAR-4 ovarian it was greater than 87.4 µM. The results for the TGI with EKVX NSCLC, with IGROV1 ovarian and with COLO 205 colon were greater than 26.9 µM, 32.5 µM and 1.7 µM, respectively.

Turning to `N#C/C(=C(\O)C(=O)O)c1ccc(-c2cccc3ccccc23)cc1`, the TGI in the test on UACC-62 melanoma, in the test with SNB-19 CNS, in the test on SNB-75 CNS, in the test with M14 melanoma, in the test with SW-620 colon and with OVCAR-4 ovarian was greater than 100 µM throughout. For the same compound, the TGI in the test with EKVX NSCLC, in the test with K-562 leukemia, in the test on IGROV1 ovarian and with COLO 205 colon was greater than 100 µM in each case.

Consider `Cc1cc(O)cc(C)c1/C=C/c1cncc(C(=O)N(C)C)c1`, for which the GI50 in the test on UACC-62 melanoma is greater than 25 µM; in the test with SNB-19 CNS, greater than 25 µM; in the test on SNB-75 CNS, greater than 13.7 µM; in the test with M14 melanoma, greater than 25 µM; in the test with SW-620 colon it was greater than 25 µM; with OVCAR-4 ovarian it was greater than 25 µM. The GI50 with EKVX NSCLC, in the test on K-562 leukemia, in the test with IGROV1 ovarian and in the test on COLO 205 colon was greater than 25 µM in each case. Moreover, the TGI in the test with UACC-62 melanoma, in the test with SNB-19 CNS, in the test with SNB-75 CNS, in the test on M14 melanoma, in the test on SW-620 colon and in the test on OVCAR-4 ovarian was greater than 25 µM throughout. For the same compound, the TGI with EKVX NSCLC, with K-562 leukemia, with IGROV1 ovarian and in the test with COLO 205 colon was greater than 25 µM throughout.
